Each structure is given as a SMILES string.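 Method: 48-hour compound exposure of cells in 96-well plates, five concentrations, linear interpolation of endpoints. GI50 is the concentration that inhibits growth by half.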 Calls of active or inactive are those of the source. Rule as the data show it: active = GI50 up to about 1.1 µM and inactive = higher. Bounds are passed on as bounds.

Common to all, as to test: NCI tumour cell line growth inhibition, 48 h
For test [1], the system named is MCF7.
Test [2] concerns DU-145.
In test [3] the test system is SR.
Test [4] concerns COLO 205.
For test [5], the system named is NCI/ADR-RES.
In test [6] the test system is Malme-3M.
Test [7] relates to SK-MEL-28.
The subject of test [8] is SK-OV-3.
For test [9], the system named is SK-MEL-2.
For test [10], the system named is M14.
The subject of test [11] is U-251.
For test [12], the system named is HOP-62.
For test [13], the system named is HT-29.
Test [14] has as its system Hs-578T.
Test [15] deals with OVCAR-5.
In test [16] the test system is A498.
The subject of test [17] is HOP-92.
In test [18] the test system is T47D.
The subject of test [19] is HCC 2998.

Consider `Fc1ccc(/C(=N/Cc2ccccc2)N2CCOCC2)cc1`, for which the GI50 in test [1], in test [2], in [3], in test [4], in [5] and in [6] was > 100 µM (inactive) in each case. Besides, the GI50 in [7], in test [8], in [9], in [10], in test [11] and in [12] was > 100 µM (inactive) in each case. The GI50 in [13], in test [14], in test [15] and in [16] was > 100 µM (inactive) in each case.

On to `CC(C)c1c(O[Si](C(C)C)(C(C)C)C(C)C)c2c3c(ccc4c3c1OC4(C)C)C(C)CC2` (configuration not stated), for which the GI50 in test [1], in [2], in [3], in test [4], in test [5] and in test [6] was > 100 µM (inactive) in each case. For the same compound, the GI50 in test [7], in [8], in test [9], in test [10], in test [11] and in [12] was > 100 µM (inactive) each time. In addition, the GI50 in [13], in test [14], in [17], in [15] and in test [16] was > 100 µM (inactive) in each case.

On to `COc1cc([C@@H]2c3cc4c(cc3[C@@H](Nc3ccc(/N=C\c5ccc(C(=O)O[C@@H](C(=O)O[C@H]6C[C@@]7(O)[C@@H](OC(=O)c8ccccc8)[C@@H]8[C@]9(OC(C)=O)CO[C@@H]9C[C@H](O)[C@@]8(C)C(=O)[C@H](OC(C)=O)C(=C6C)C7(C)C)[C@@H](NC(=O)c6ccccc6)c6ccccc6)cc5)cc3)[C@H]3COC(=O)[C@H]23)OCO4)cc(OC)c1O`, for which the GI50 in test [1] is 0.384 µM (active); in test [2], 2.68 µM (inactive); in [3], 0.0102 µM (active); in test [4], 1.39 µM (inactive); in test [5], > 45.8 µM (inactive); in test [6], > 50 µM (inactive). Besides, the GI50 in [18] was 11.4 µM (inactive); in test [19], 14.9 µM (inactive); in test [7] it was > 38.8 µM (inactive); in test [8], 2.78 µM (inactive); in test [9], > 33.7 µM (inactive); in [10], 5.48 µM (inactive). In addition, the GI50 was 3.34 µM (inactive) in test [11]; 2.93 µM (inactive) in [12]; 9.04 µM (inactive) in [13]; 6.38 µM (inactive) in test [17]; 20.2 µM (inactive) in test [15]; 0.196 µM (active) in [16].

As for `COc1ccc(-c2cc(-c3cc(F)c(Cl)cc3Cl)[nH]n2)cc1OC`, the GI50 is 33.1 µM (inactive) in test [2]; 11.1 µM (inactive) in [3]; 19.2 µM (inactive) in test [4]; 25.1 µM (inactive) in test [5]; 30.4 µM (inactive) in test [6]; 28.6 µM (inactive) in test [18]. For the same compound, the GI50 is 48.6 µM (inactive) in test [7]; 31.9 µM (inactive) in test [8]; 79.6 µM (inactive) in test [9]; 75 µM (inactive) in test [10]; 26.9 µM (inactive) in test [11]; 39.9 µM (inactive) in test [12]. Further, the GI50 in [13] is 22.1 µM (inactive); in test [14], 43.7 µM (inactive); in test [17], 20.6 µM (inactive); in test [15] it was > 100 µM (inactive).

With `O=C(O)c1cc2ccccc2c(/N=N/c2c([N+](=O)[O-])cc([N+](=O)[O-])cc2S(=O)(=O)O)c1O`, the GI50 in test [4], in test [5], in test [6], in [7], in [8] and in test [9] was > 100 µM (inactive) each time. For the same compound, the GI50 in [10], in test [11], in test [12], in [13], in [14] and in test [17] was > 100 µM (inactive) in each case. Further, the GI50 in [15] is > 100 µM (inactive).

For `NC1=C(c2nc(-c3ccccc3)cs2)C(c2ccco2)c2c(c3ccccc3oc2=O)O1` (configuration not stated), the GI50 in test [1], in test [2], in test [3], in test [4], in [5] and in test [6] was > 100 µM (inactive) throughout. For the same compound, the GI50 in test [19], in test [7], in test [8], in test [9], in test [10] and in test [11] was > 100 µM (inactive) throughout. The GI50 in [12] was > 100 µM (inactive); in [13] it was > 100 µM (inactive); in test [14] it was 3.32 µM (inactive); in test [17] it was 53.3 µM (inactive); in [15], > 100 µM (inactive); in test [16], > 100 µM (inactive).

Consider `COc1ccc(-c2c(C(C)=O)c(C)n(C3OC(COC(C)=O)C(OC(C)=O)C(OC(C)=O)C3OC(C)=O)c(=S)c2C#N)cc1` (configuration not stated), for which the GI50 in [1] is > 100 µM (inactive); in test [2], > 100 µM (inactive); in [3] it was > 100 µM (inactive); in [4], > 100 µM (inactive); in [5], 71 µM (inactive); in test [6], > 100 µM (inactive). The GI50 in [18] was > 100 µM (inactive); in test [19], > 100 µM (inactive); in test [7], > 100 µM (inactive); in test [8] it was > 100 µM (inactive); in test [9] it was 29.9 µM (inactive); in test [10] it was > 100 µM (inactive). Besides, the GI50 in test [11] was > 100 µM (inactive); in test [12], > 100 µM (inactive); in test [13] it was > 100 µM (inactive); in [17], 15 µM (inactive); in test [15], > 100 µM (inactive); in [16] it was > 100 µM (inactive).

Consider `COc1ccc(N[S+]([O-])CCc2ccccc2)cc1` (configuration not stated), for which the GI50 in test [1] was > 100 µM (inactive); in test [2] it was > 100 µM (inactive); in test [3], > 100 µM (inactive); in test [4], > 100 µM (inactive); in [5] it was 58.1 µM (inactive); in [6], > 100 µM (inactive). For the same compound, the GI50 in test [19] was 94 µM (inactive); in test [7] it was > 100 µM (inactive); in test [8], 4.35 µM (inactive); in [10], > 100 µM (inactive); in [11], > 100 µM (inactive); in test [12], > 100 µM (inactive). For the same compound, the GI50 was > 100 µM (inactive) in [13], 23.4 µM (inactive) in test [14] and > 100 µM (inactive) in [15].

For `CC(C)=CCC(O)[C@](C)(O)[C@H]1[C@H](O)C[C@@]2(C)[C@@H]3CCc4cc(O)c(OC5OC(CO)C(O)C(O)C5O)cc4C3(C)C(=O)C[C@]12C` (some centres not stated), the GI50 in test [1], in [2], in [3], in [4], in test [5] and in test [6] was > 100 µM (inactive) each time. The GI50 in test [18], in test [19], in test [7], in test [8], in test [9] and in test [10] was > 100 µM (inactive) in each case. The GI50 in [11], in test [12], in [13], in [17], in test [15] and in test [16] was > 100 µM (inactive) each time.

On to `CC1(C)CCC[C@]2(C)[C@@H]1CC[C@@]13O[C@@H]1C1=C(CO)C(=O)O[C@]14O[C@@H]4[C@@H]23`, for which the GI50 in test [1] was 15.3 µM (inactive); in test [2], 14.3 µM (inactive); in test [3], 4.61 µM (inactive); in test [4], 17.7 µM (inactive); in test [5], 14.9 µM (inactive); in test [6] it was 17 µM (inactive). Besides, the GI50 in test [18] is 22 µM (inactive); in [19] it was 19.2 µM (inactive); in test [7], 15.6 µM (inactive); in test [8], 16.7 µM (inactive); in test [9] it was 13.9 µM (inactive); in test [10] it was 10.8 µM (inactive). Also, the GI50 was 13.8 µM (inactive) in test [11]; 17.8 µM (inactive) in test [12]; 12.4 µM (inactive) in [13]; 14 µM (inactive) in test [17]; 15.7 µM (inactive) in test [15]; 17.3 µM (inactive) in [16].
